Measured values published in US8012945B2, “Phage antibodies to radiation-inducible neoantigens” (Vanderbilt University, priority 2001, dated 2011).

How the values were obtained:
[1] = test system: irradiated tumors (LLC and GL261); assay: In vivo screening of T7 phage peptide library, LLC and GL261 tumors pooled; set-up: species or system mice; conditions: for Frequency of Recovery: conserved motifs within peptides identified by in vivo screening
Description: GL261 murine glioma cells and Lewis lung carcinoma cells were implanted into the hind limb of C57BL6 mice (Hallahan et al., 1995b; Hallahan et al., 1998; Hallahan & Virudachalam, 1999).
For in vivo screening, tumors were irradiated with 3 Gy and approximately 10^10 phage (prepared as described in Example 4) were administered by tail vein injection into each of the tumor bearing mice at 4 hours following irradiation. Tumors were recovered at one hour following injection and amplified in BL21 bacteria. Amplified phage were pooled and re-administered to a tumor-bearing mouse following tumor irradiation. The phage pool was sequentially administered to a total of 6 animals. As a control, wild type phage lacking synthetic peptide inserts were identically administered to a second experimental group of animals.
To determine the titer of phage binding in a tumor or in normal tissue, recovered phage were amplified in BL21 bacteria. Bacteria were plated and the number of plaques present were counted. To determine the total phage output per organ, the number of plaque forming units (PFU) on each plate was divided by the volume of phage plated and the weight of each organ.
An individual phage suspension was used as template. Amplified peptides were sequenced using an ABI PRISM 377 sequencer (PE Biosystems, Foster City, Calif., United States of America).

LLC tumors = assay: In vivo screening of T7 phage peptide library, irradiated LLC tumors; set-up: species or system mice; conditions: 3 Gy, 6 rounds of in vivo screening; for Number of Phage Recovered from LLC tumors: randomly selected phage
Description: (§1) A population of DNA fragments encoding recombinant peptide sequences was cloned into the T7 […] vector (Novagen, Madison, Wis., United States of America). […] The resulting reading frame requires an AAT initial codon followed by a TCX codon. The molar ratio between insert and vector was 1:1. Size-fractionated cDNA inserts were prepared by gel filtration on sepharose 4B and ranged from 27 base pairs to 33 base pairs. cDNAs were ligated by use of the DNA ligation kit (Novagen, Madison, Wis., United States of America). Recombinant T7 DNA was packaged according to the manufacturer's instructions and amplified prior to bioscreening in animal tumor models. […] GL261 murine glioma cells and Lewis lung carcinoma cells were implanted into the hind limb of C57BL6 mice ([…] et al., 1995[…] et al., 1998; […], 1999). […] Tumors were recovered at one hour following injection and amplified in BL21 bacteria. Amplified phage were pooled and re-administered to a tumor-bearing mouse following tumor irradiation. The phage pool was sequentially administered to a total of 6 animals. […] To determine the titer of phage binding in a tumor or in normal tissue, recovered phage were amplified in BL21 bacteria. Bacteria were plated and the number of plaques present were counted. To determine the total phage output per organ, the number of plaque forming units (PFU) on each plate was divided by the volume of phage plated and the weight of each organ. […] Following 6 rounds of in vivo screening, fifty recombinant phage peptides that bound within irradiated tumors were randomly selected for further analysis. The nucleic acid sequence encoding recombinant phage was amplified by PCR using primers set forth as SEQ ID NOs: 14-15 (available from Novagen, Madison, Wis., United States of America). An individual phage suspension was used as template. Amplified peptides were sequenced using an ABI PRISM 377 sequencer (PE Biosystems, Foster City, Calif., United States of America).

GL261 tumors = assay: In vivo screening of T7 phage peptide library, irradiated GL261 tumors; set-up: species or system mice; conditions: 3 Gy, 6 rounds of in vivo screening; for Number of Phage Recovered from GL261 tumors: randomly selected phage
Description: as §1

[2] = test system: melanoma, lung carcinoma, and glioma tumor models; assay: Binding of peptide-encoding phage in additional tumor models; format: in vivo, mice; conditions: B16F0 melanoma, Lewis lung carcinoma, GL261 glioma
From the text: The binding properties of phage encoding […] (SEQ ID NO: 1), […] (SEQ ID NO: 2), […] (SEQ ID NO: 3), and NSVGSRV (SEQ ID NO: 4) were additionally characterized in a B16F0 melanoma model.

[3] = test system: P-selectin and platelet membrane glycoprotein IIB; assay: Screening of phage-displayed scFv library on immobilized neoantigens, Western immunoblot, then in vivo screening of irradiated tumors; format: binding; conditions: recovered following in vivo screening to irradiated tumors
Description: A phage library comprising diverse single chain antibodies was prepared in M13 phage. Briefly, nucleotide sequences encoding antibody VL and VH regions separated by a (Gly4Ser)3 linker were fused to M13 gene III nucleotide sequences. When a recombinant M13 carrying these antibody-gene III fusions infects an appropriate host bacterium, the host produces recombinant M13 phage that display scFv antibody polypeptides (VL-linker-VH) fused to gene III protein.
The phage library was exposed to the radiation-inducible neoantigens P-selectin (also called CD62P; GENBANK™ Accession No. P98109) and/or platelet membrane glycoprotein IIB (also called CD41; GENBANK™ Accession No. P08514) immobilized on glass slides. Phage were selected based on antigen binding, and selected phage were pooled as a biased library. For representative in vitro screening methods, see Fowlkes et al., 1992; Haaparanta & Huse, 1995; Jung & Pluckthun, 1997; Peter et al., 2000; Holzem et al., 2001; Chiu et al., 2000.
Phage identified by in vitro screening were tested on Western immunoblots to confirm binding to the P-selection and platelet membrane glycoprotein IIB neoantigens. Phage that specifically bound P-selectin and platelet membrane glycoprotein IIB were subsequently used for in vivo screening of irradiated tumors as described in Example 5. Wild type phage were used as internal controls. Antibodies having substantial affinity for irradiated tumors were identified by observing an increased number of phage in the irradiated tumor when compared to a number of phage in a control organ (e.g., liver and lung). Phage antibodies with the greatest affinity for tumors were identified using the formula: number of phage in irradiated tumor/number of phage in each organ.

Molecule: NSXR [conserved motif within recovered peptides]
- Frequency of Recovery [1]: 32%

Molecule: NSV (Artificial peptide ligand number 10) [conserved motif within recovered peptides]
- Frequency of Recovery [1]: 22%

Molecule: NSVGSRV (Artificial peptide ligand number 4)
- Phage Recovered from LLC tumors (Frequency) (LLC tumors): 4%
- Number of Phage Recovered from LLC tumors (LLC tumors): 1
- Phage Recovered from GL261 tumors (Frequency) (GL261 tumors): 12%
- Number of Phage Recovered from GL261 tumors (GL261 tumors): 3
- binding of phage encoding the peptide within tumor models [2]: bound within lung carcinoma and glioma

Molecule: NXVG [conserved motif within recovered peptides]
- Frequency of Recovery [1]: 46%

Molecule: GSXV [conserved motif within recovered peptides]
- Frequency of Recovery [1]: 78%

Molecule: RGDGSSV (Artificial peptide ligand number 6)
- share of peptide sequences recovered from 6 irradiated tumors having the subsequence ([1]; mouse, in vivo): 18%

Molecule: NSVRGSGSGV (Artificial peptide ligand number 3)
- Phage Recovered from LLC tumors (Frequency) (LLC tumors): 28%
- Number of Phage Recovered from LLC tumors (LLC tumors): 7
- Number of Phage Recovered from GL261 tumors (GL261 tumors): 0
- binding of phage encoding the peptide within tumor models [2]: bound within glioma and melanoma

Molecule: NSLRGDGSSV (phage-displayed; Artificial peptide ligand number 2)
- Phage Recovered from LLC tumors (Frequency) (LLC tumors): 28%
- Number of Phage Recovered from LLC tumors (LLC tumors): 7
- Phage Recovered from GL261 tumors (Frequency) (GL261 tumors): 8%
- Number of Phage Recovered from GL261 tumors (GL261 tumors): 2
- binding of phage encoding the peptide within tumor models [2]: bound within the melanoma, lung carcinoma, and glioma tumor models

Molecule: GSRV (Artificial peptide ligand number 7)
- share of peptide sequences recovered from 6 irradiated tumors having the subsequence ([1]; mouse, in vivo): 4%

Molecule: GSSV (Artificial peptide ligand number 13)
- Frequency of Recovery [1]: 56%
- phage recovered from irradiated tumors ([1]; mouse, in vivo): 22-40 of 10^6 injected phage
- share of peptide sequences recovered from 6 irradiated tumors having the subsequence ([1]; mouse, in vivo): 56%

Molecule: NHVGGSSV (Artifical peptide ligand number 1)
- Phage Recovered from LLC tumors (Frequency) (LLC tumors): 28%
- Number of Phage Recovered from LLC tumors (LLC tumors): 7
- Phage Recovered from GL261 tumors (Frequency) (GL261 tumors): 48%
- Number of Phage Recovered from GL261 tumors (GL261 tumors): 12
- binding of phage encoding the peptide within tumor models [2]: bound within the melanoma, lung carcinoma, and glioma tumor models

Molecule: NSXRGXGS [conserved motif within recovered peptides]
- Frequency of Recovery [1]: 32%

B1: SEQ ID NO: 24: scFv antibody encoded by SEQ ID NO: 23 (protein)
scFv: MAQVKLQQSGPELVKPGASVKMSCKASGYTFTSYVMHWVKQSNGKSLEWIGTIDPYYGGTSYNQKFKGKATLTVDKSSTTAYIQLKSLTSEDSAVYYCARWDGYYGGFSYWGQGTMVTVSSGGGGSGGGGSGGGGSDIELTQSPAIMSATLGEKVTMSCRASSNVKYMYWYQQKSGASPKLWIYYTSNLASGVPARFSGSGSGTSYSLTISSVEAEDAATYYCQQFTSSPYTFGSGTKLEIKRAAAGAPVPYPDPLEPRAA
modifications: nucleic acid encoding scFv antibody 10A
- neoantigen recognition [3]: recognize the radiation-inducible neoantigens P-selectin and platelet membrane glycoprotein IIB

B2: SEQ ID NO: 22: scFv antibody encoded by SEQ ID NO: 21 (protein)
scFv: MAQVQLQESGPGLVKPSQSLSLTCSVTGYSITSNYWGWIRKFPGNKMEWMGYISYSGSTSYNPSLKSRISITRDTSKNQLFLQLNSVTTEDTATYYCARYSLFNYGRRDYVMDAWGQGTTVTVSSGGGGSGGGGSGGGGSDIELTQSPATMAASPGEKVTITCRASSTVSYMHWFQQKPGASPKPWIYDTSKLASGVPDRFSGSGSGTDFTLTIDPVQADDIATYYCQQSKDDPRTFGGGTKLELKRRPQVRRCRIRIRWNRVPH
modifications: Nucleic acid encoding scFv antibody 4A
- neoantigen recognition [3]: recognize the radiation-inducible neoantigens P-selectin and platelet membrane glycoprotein IIB

B3: SEQ ID NO: 20: scFv antibody encoded by SEQ ID NO: 19 (protein)
scFv: MAQVKLQQSGPELVKPGASVKMSCKASGYTFTSYVMHWVKQKPGQGLEWIGYINPYNDGTKYNEKFKGKAALTSDKSSSTAYMELSSLTSEDSAVYYCARFGNYGALDYWGQGTTVTVSSGGGGSGGGGSGGGGSDIELTQSPTIMSASPGEKVTITCSASSSVSYMHWFQQKPGTSPKPWIYGTSNLASGVPVRFSGSGSGTSYSLTISSMEAEDAATYYCQQWSSYPLTFGGGTKLEIKR
modifications: Artificial antibody ligand number 2
- neoantigen recognition [3]: recognize the radiation-inducible neoantigens P-selectin and platelet membrane glycoprotein IIB

B4: SEQ ID NO: 18: scFv antibody encoded by SEQ ID NO: 17 (protein)
scFv: MAQVKLQQSGAELVMPGASVKMSCKASGYTFTDYWMHWVKQRPGQGLEWIGAIDTSDSYTSYNQKFKGKATLTVDESSSTAYMQLSSLTSEDSAVYYCARRGYYSAFDYWGQGTTVTVSSGGGGSGGGGSGGGGSDIELTQSPTTMAASPGEKVTITCRASSSVSYMHWFQQKSGTSPKPWIYDTSKLASGVPDRFSGSGSGTSYSLTISSMEAEDAATYYCLQRSSYPYTFGAGTKLEIKR
modifications: Artificial antibody ligand number 1
- neoantigen recognition [3]: recognize the radiation-inducible neoantigens P-selectin and platelet membrane glycoprotein IIB
